Experimental data: patent US6448472B1, “Genetic and epigenetic manipulation of ABC transporters and ectophosphatases for the conference of hormone and herbicide resistance” (Board of Regents, The University of Texas System, priority 1999, dated 2002)
Read-outs that look alike come from different tables or passages of the source.

How the values were obtained:
yeast mutant YMR4 = experiment: Yeast growth in suspension, salvage pathway experiments (adenosine, phosphate); format: cell-based, Saccharomyces cerevisiae; conditions: 72 hours; for effect of addition to the media on resistance to cycloheximide: YMR4 cells, 3 mM adenosine, potassium phosphate; for effect of addition on growth in drug: cells overexpressing AtPGP-1 grown in cycloheximide
Experimental: Growth of cell lines in suspension for salvage pathway experiments: All cell lines were grown in liquid media either containing drug (for the drug selected lines) or not containing drug (for the non-drug selected lines). When the cultures reached a turbidity of 1.00 as measured at a wavelength of 600 in a spectrophotometer (OD600=1.00), 10 μl of each culture was then removed and placed in either media with nothing added, 3 mM potassium phosphate; 3 mM adenosine; 9 mM potassium phosphate and 3 mM adenosine (for controls); potassium phosphate and cycloheximide; adenosine and cycloheximide; adenosine, cycloheximide, and potassium phosphate. Cell cultures were further grown for 72 hours, and their turbidity was determined by OD600 readings on a spectrophotometer.

[1] = tested on: Arabidopsis thaliana plants; experiment: Arabidopsis germination selection assay of transgenic plants (Example 2); format: in vivo; conditions: cycloheximide 250 ng/ml
Source text: Expression of apyrase and AtPGP-1 in plants: The expression of apyrase in plants is as described above in Example 1. Similar methods were employed to express AtPGP-1 in Arabidopsis thaliana plants with the following modifications. The AtPGP-1 coding region was subcloned into a pBIN vector lacking the GUS gene as described in Sidler, et al., 1998, The Plant Cell 10:1623-1636. This plasmid was then transformed into A. tumefaciens as described above, which was used to infect root calli to produce transgenic plants expressing AtPGP-1.
Plant growth: Arabidopsis thaliana seeds were sown in a solid germination media containing MS salt, 2% sucrose, 0.8% agar, and vitamins (Valvekens, D. et al., […], Proc. Natl. Acad. Sci. USA 85:5536-5540. For selection assays, cycloheximide was spread on the media to achieve a final concentration of 250 ng/ml. Plant growth was measured by germination percentage after 6-30 days.

[2] = tested on: Arabidopsis thaliana plants; format: in vivo; conditions: after 10-20 days
Experimental: Plant Growth: Arabidopsis seeds were sown in a solid germination media containing MS salts (Sigma Chemical, St. Louis, Mo.), 2% sucrose, 0.8% agar, and vitamins (Valvekens, D. et al., 1992, Proc. Natl. Acad. Sci. USA 85:5536-5540). For selection assays, one of the following, or a combination of both, Was added to media (cooled to less than 50° C. before adding) immediately prior to pouring into plates: cycloheximide at a final concentration of 500 ng/ml; α,β-methyleneadenosine 5′-diphosphate at a final concentration of 1 mM. Plant growth was measured by germination percentage after 10-20 days.
All other materials and methods were discussed above in Example 2.

[3] = tested on: Saccharomyces cerevisiae INVSC1 and YMR4; experiment: Yeast growth selection assay on plates and in liquid media (turbidity OD600); format: cell-based; conditions: cycloheximide 500 ng/ml
Source text: Expression of AtPGP-1 in yeast: The AtPGP-1 cDNA (Arabidopsis thaliana MDR gene, accession #X61370) was subcloned into pVT101 downstream of the ADH promoter to create the AtPGP-1/pVT101 construct. AtPGP-1/pVT101 and pVT101 were transformed into Saccharomyces cerevisiae INVSC1 (genotype: MATα, his3-Δ1, leu2, trp1-289, ura3-52) and YMR4 (genotype: MATαhis3-11,15, leu2-3, 112ura3Δ5, can Res pho5, 3::ura3Δ1) by a PEG lithium acetate procedure (Eble, R., 1992, Biotechniques 13:18-20) and selected on uracil dropout medium.
Yeast Growth: Yeast were grown at 30° C. under conditions of constant selection for uracil auxotrophy. YNB (Bio101, Vista, Calif.) supplemented with CSM (uracil dropout) and 2% glucose was used to grow strains having pVT101 constructs. Cycloheximide (Sigma Chemical, St. Louis, Mo.) was added to liquid media or spread on solid media to achieve a final concentration of 500 ng/ml. Nigericin (Sigma Chemical, St. Louis, Mo.) was added to liquid media or spread on solid media to achieve a final concentration of 25 μg/ml. Yeast strains used in cycloheximide selection assays were always propagated in the presence of the cycloheximide on plates and then streaked onto new plates containing drug or no drug, such that induced resistance existed in each strain at the time of the start of the assay. For selection assays on plates, single colonies were streaked; for selection in liquid media 0.01 ml of saturated culture was added to fresh media containing the drug. The plates shown in figures were grown for 3-5 days before photographs were taken. Yeast selection assays in liquid media were quantitated by turbidity as measured by absorbance at OD600.

[4] = tested on: S. cerevisiae yeast cells; experiment: Yeast growth in suspension with ATP and drug selection (turbidity); format: cell-based, Saccharomyces cerevisiae; conditions: 100 mM ATP, 48 hours
Experimental: Cell lines: Cell lines were the same as those described above in Example 2 and 3. YMR4 MDR1 is the phosphatase mutant yeast strain overexpressing AtPGP-1; YMR4 pVT101 contains vector alone; INVSC MDR1 is the wild-type yeast strain overexpressing AtPGP-1; and INVSC pVT101 contains vector alone.
Selection in drug: To create drug resistant yeast strains, all four cell lines were grown up in the presence of 500 ng/ml of cycloheximide, and transferred to other cycloheximide containing plates after a period of four to six days. This transfer of cell lines and subculturing continued such that the yeast cells grew in the presence of cycloheximide for a period of at least a month.
Cells cultured in media alone: To create cell lines that had not been preselected for their ability to grow in drug, yeast strains were grown on plates containing YNB (Bio101, Vista, Calif.) without uracil (-URA) to maintain the presence of the vector (which supplies URA) without any drugs added.
Growth of cells in suspension for ATP and drug selection experiments: Cells were transferred into 5 ml YNB-URA liquid media for turbidity measurements. All cell lines (both non-drug selected and drug-selected) were grown in media with the addition of either nothing, 500 ng/ml cycloheximide, 100 mM ATP, or 500 ng/ml cycloheximide and 100 mM ATP. Turbidity readings were taken after 48 hours.

[5] = YMR4 ecto-phosphatase deficient mutant (vector alone), nigericin 25 μg/ml
[6] = YMR4 expressing AtPGP-1, nigericin 25 μg/ml

O=P(O)(O)O [phosphate, potassium phosphate]
effect of addition to the media on resistance to cycloheximide (yeast mutant YMR4): did not enhance resistance | effect of addition on growth in drug (yeast mutant YMR4): slightly inhibitory

Nc1ncnc2c1ncn2[C@@H]1O[C@H](CO)[C@@H](O)[C@H]1O [adenosine]
effect of addition to the media on resistance to cycloheximide (yeast mutant YMR4): did not enhance resistance | effect of addition on growth in drug (yeast mutant YMR4): slightly inhibitory

CC(C)=CCNc1ncnc2nc[nH]c12 [N6-(2-isopentenyl) adenine]
resistance of plants to the drug (germination) ([1]; plants over-expressing AtPGP-1): confer resistance | resistance of plants to the drug (germination) ([1]; plants over-expressing apyrase): The same result was obtained

Nc1ncnc2c1ncn2[C@@H]1O[C@H](COP(=O)(O)CP(=O)(O)O)[C@@H](O)[C@H]1O [phosphatase inhibitor, α,β-methyleneadenosine 5′-diphosphate]
germination rate ([2]; AtPGP-1 overexpressing (MDR OE) plants, cycloheximide 500 ng/ml, phosphatase inhibitor 1 mM): 83% | germination rate ([2]; wild-type plants, cycloheximide 500 ng/ml, phosphatase inhibitor 1 mM): 90%

CO[C@@H]1C[C@@H](C[C@H]2CC[C@H](C)[C@H]([C@@H](C)C(=O)O)O2)O[C@]2(O[C@](C)([C@H]3CC[C@@](C)([C@@H]4O[C@@H]([C@H]5O[C@@](O)(CO)[C@H](C)C[C@@H]5C)C[C@@H]4C)O3)C[C@H]2C)[C@@H]1C [nigericin]
growth in the presence of drug [3, 5]: reduced growth | growth in the presence of drug [3, 6]: The same result was obtained

Nc1ncnc2c1ncn2[C@@H]1O[C@H](COP(=O)(O)OP(=O)(O)OP(=O)(O)O)[C@@H](O)[C@H]1O [ATP]
growth in high levels of ATP ([4]; cells not previously selected in drug): able to grow | growth in high levels of ATP ([4]; cells previously selected in cycloheximide, not overexpressing AtPGP-1): not able to grow

C[C@@H]1C[C@@H]([C@H](O)CC2CC(=O)NC(=O)C2)C(=O)[C@@H](C)C1 [cycloheximide]
germination rate ([2]; AtPGP-1 overexpressing (MDR OE) plants): 50% | germination rate ([2]; wild-type plants): 2% | resistance of plants to the drug (germination) ([1]; plants over-expressing AtPGP-1): confer resistance | resistance of plants to the drug (germination) ([1]; plants over-expressing apyrase): conference of resistance | effect of AtPGP-1 on growth in the presence of drug ([3]; INVSC1 wild-type yeast with AtPGP-1): did not have any effect | growth in the presence of drug ([3]; INVSC1 wild-type yeast): did grow | growth in the presence of drug [3, 5]: did not grow | growth in the presence of drug [3, 6]: enabled the yeast mutant to grow
